# Experiments:
# [1] = test system: UGT enzymes of pooled human jejunum microsomes; assay: Inhibition of 2ME2 glucuronidation (MG1) in pooled human jejunum microsomes; assay type: biochemical; details: jejunum HJ61, 2ME2 50 μM
# Excerpt: (§1) Compounds were eluted using a binary solvent gradient system where solvent A was dilute phosphoric acid (pH 3) and solvent B was 80:20 acetonitrile-methanol. […] Detection was at 280 nm.
# [2] = test system: UGT enzymes of human liver microsomes; assay: Inhibition of raloxifene glucuronidation (G1, G2) in human liver microsomes; assay type: biochemical; details: for % of control metabolism (SD, n = 3), raloxifene glucuronide G1 / % of control metabolism (SD, n = 3), raloxifene glucuronide G2: human liver microsomes 250 μg/ml, 15 min
# Excerpt: (§2) Compounds were eluted using a binary solvent gradient system. […] Solvent B was methanol. […] Detection was at 280 nm.
# UGT1A3 = target: T1, UGT1A3 (Homo sapiens, UniProt P35503); assay: Inhibition of raloxifene glucuronidation by recombinant UGT1A3 Supersomes; details: for Inhibition of raloxifene glucuronidation, G1, UGT1A3 / Inhibition of raloxifene glucuronidation, G2, UGT1A3: raloxifene 50 μM, 250 μg/ml Supersomes, 1 mM UDPGA, 15 min; for % of control metabolism, raloxifene G1 / % of control metabolism, raloxifene G2: UGT1A3
# T1 sequence (P35503 29-534): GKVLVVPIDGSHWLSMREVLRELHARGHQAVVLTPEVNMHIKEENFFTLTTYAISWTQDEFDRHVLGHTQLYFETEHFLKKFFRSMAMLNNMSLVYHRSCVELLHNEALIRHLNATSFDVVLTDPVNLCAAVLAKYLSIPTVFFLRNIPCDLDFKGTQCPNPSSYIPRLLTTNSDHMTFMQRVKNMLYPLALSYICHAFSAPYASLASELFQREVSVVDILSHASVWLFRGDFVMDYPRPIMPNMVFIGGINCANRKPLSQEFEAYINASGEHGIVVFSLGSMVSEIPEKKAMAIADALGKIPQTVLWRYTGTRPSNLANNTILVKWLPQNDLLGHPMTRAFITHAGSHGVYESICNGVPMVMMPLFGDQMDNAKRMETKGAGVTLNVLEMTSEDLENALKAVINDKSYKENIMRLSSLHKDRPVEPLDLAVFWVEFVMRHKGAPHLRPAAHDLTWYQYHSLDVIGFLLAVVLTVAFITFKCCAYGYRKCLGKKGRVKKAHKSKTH
# Description: Compounds were eluted using a binary solvent gradient system. Solvent A was water brought to pH 8 with NH4OH. Solvent B was methanol. Solvent flow rate was 1 ml/min and the column temperature was maintained at 50° C. Detection was at 280 nm. […] The system was then returned to the initial conditions and equilibrated for 3 min.
# [3] = test system: UGT enzymes of pooled human jejunum microsomes; assay: Inhibition of estradiol (E2) glucuronidation in pooled human jejunum microsomes; assay type: biochemical; details: jejunum HJ61; E2 50 μM; inhibitor 50 μM
# Excerpt: as §1
# [4] = test system: T2, UGT enzymes of human liver microsomes; assay: Inhibition of 7-HFC glucuronidation in human liver microsomes; assay type: biochemical; details: for % of control metabolism (SD, n = 3), 7-HFC glucuronidation: 7-HFC 50 μM, human liver microsomes 100 μg/ml, 15 min
# T2 construct: percentage of control metabolism, 7-HFC glucuronidation; percentage of control metabolism, 7-HFC glucuronidation
# [5] = test system: T3, UGT enzymes of human liver microsomes; assay: Inhibition of estradiol (E2) glucuronidation in human liver microsomes; assay type: biochemical; details: liver 032101; E2 50 μM; inhibitor 50 μM
# T3 construct: residual metabolism (% of control), E2-17-β-D-glucuronide; other: liver 032101; residual metabolism (% of control), E2-17-β-D-glucuronide
# Excerpt: as §1
# [6] = test system: UGT enzymes of human liver microsomes; assay: as above; assay type: biochemical; details: liver 062101; E2 50 μM; inhibitor 50 μM
# Excerpt: as §1
# [7] = test system: T4, UGT enzymes of human liver microsomes; assay: as above; assay type: biochemical; details: liver 032101; E2 50 μM; inhibitor 50 μM
# T4 construct: residual metabolism (% of control), E2-3-β-D-glucuronide; other: liver 032101; residual metabolism (% of control), E2-3-β-D-glucuronide
# Excerpt: as §1
# [8] = test system: UGT enzymes of pooled human jejunum microsomes; assay: Inhibition of raloxifene glucuronidation (G1, G2) in pooled human jejunum microsomes; assay type: biochemical; details: jejunum HJ61; inhibitor 50 μM
# Description: as §2
# Standardized incubations utilized […] microsomal protein, 1 mM UDPGA and a 30 min incubation time.
# UGT1A9 = target: T5, UGT1A9 (Homo sapiens, UniProt O60656); assay: Inhibition of raloxifene glucuronidation by recombinant UGT1A9 Supersomes; details: for % of control metabolism, raloxifene G1 / % of control metabolism, raloxifene G2: UGT1A9; for Inhibition of raloxifene glucuronidation, UGT1A9, first line per inhibitor (G1): first line (G1, metabolite not given); for Inhibition of raloxifene glucuronidation, UGT1A9, first line per inhibitor (G1) / Inhibition of raloxifene glucuronidation, UGT1A9, second line per inhibitor (G2): raloxifene 50 μM, 250 μg/ml Supersomes, 1 mM UDPGA, 15 min; for Inhibition of raloxifene glucuronidation, UGT1A9, second line per inhibitor (G2): second line (G2, metabolite not given)
# T5 sequence (O60656 26-530): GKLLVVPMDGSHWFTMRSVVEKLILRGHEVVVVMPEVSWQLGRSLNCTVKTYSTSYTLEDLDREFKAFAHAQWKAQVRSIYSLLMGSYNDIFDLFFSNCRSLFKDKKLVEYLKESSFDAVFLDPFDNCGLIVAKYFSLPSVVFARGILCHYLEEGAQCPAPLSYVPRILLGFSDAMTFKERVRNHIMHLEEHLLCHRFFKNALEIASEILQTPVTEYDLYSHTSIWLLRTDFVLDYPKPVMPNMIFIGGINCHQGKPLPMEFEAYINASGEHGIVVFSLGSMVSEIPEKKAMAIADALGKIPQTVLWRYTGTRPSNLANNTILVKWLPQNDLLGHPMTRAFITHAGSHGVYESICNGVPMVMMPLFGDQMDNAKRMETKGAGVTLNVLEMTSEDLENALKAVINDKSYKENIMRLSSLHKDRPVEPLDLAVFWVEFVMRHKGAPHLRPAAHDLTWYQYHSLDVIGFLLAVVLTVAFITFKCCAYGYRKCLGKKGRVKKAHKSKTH
# [9] = inhibitor 10 μM, raloxifene 50 μM
# [10] = inhibitor 25 μM, raloxifene 50 μM
# [11] = inhibitor 50 μM, raloxifene 50 μM
# [12] = inhibitor 100 μM, raloxifene 50 μM
# [13] = inhibitor 500 μM, raloxifene 50 μM
# [14] = liver lot 032101, inhibitor 50 μM
# [15] = liver lot 062101, inhibitor 50 μM
# [16] = liver lot 083000, inhibitor 50 μM
# [17] = raloxifene 50 μM, inhibitor 10 μM
# [18] = raloxifene 50 μM, inhibitor 25 μM
# [19] = raloxifene 50 μM, inhibitor 50 μM
# [20] = raloxifene 50 μM, inhibitor 100 μM
compound,measurement,setting,value
O=C(O[C@@H]1Cc2c(O)cc(O)cc2O[C@@H]1c1cc(O)c(O)c(O)c1)c1cc(O)c(O)c(O)c1 [Epigallocatechin gallate],"residual metabolism (% of control), 2ME2 MG1",[1]; inhibitor 25 μM,66 (2) %
same,"residual metabolism (% of control), 2ME2 MG1",[1]; inhibitor 50 μM,50 (3) %
same,"residual metabolism (% of control), 2ME2 MG1",[1]; inhibitor 100 μM,35 (2) %
same,"% of control metabolism (SD, n = 3), raloxifene glucuronide G1",[2]; [9],85 (3) %
same,"% of control metabolism (SD, n = 3), raloxifene glucuronide G1",[2]; [10],56 (1) %
same,"% of control metabolism (SD, n = 3), raloxifene glucuronide G1",[2]; [11],46 (2) %
same,"% of control metabolism (SD, n = 3), raloxifene glucuronide G1",[2]; [12],22 (1) %
same,"% of control metabolism (SD, n = 3), raloxifene glucuronide G1",[2]; [13],0 (0) %
same,"% of control metabolism (SD, n = 3), raloxifene glucuronide G2",[2]; [9],82 (3) %
same,"% of control metabolism (SD, n = 3), raloxifene glucuronide G2",[2]; [10],63 (1) %
same,"% of control metabolism (SD, n = 3), raloxifene glucuronide G2",[2]; [11],50 (3) %
same,"% of control metabolism (SD, n = 3), raloxifene glucuronide G2",[2]; [12],27 (2) %
same,"% of control metabolism (SD, n = 3), raloxifene glucuronide G2",[2]; [13],0 (0) %
same,"% of control metabolism, raloxifene G1",[2]; [14],54 (2) %
same,"% of control metabolism, raloxifene G2",[2]; [14],50 (2) %
same,"% of control metabolism, raloxifene G1",[2]; [15],68 (2) %
same,"% of control metabolism, raloxifene G2",[2]; [15],41 (2) %
same,"% of control metabolism, raloxifene G1",[2]; [16],46 (2) %
same,"% of control metabolism, raloxifene G2",[2]; [16],50 (3) %
same,"% of control metabolism, raloxifene G1",[2]; [17],85 (3) %
same,"% of control metabolism, raloxifene G2",[2]; [17],82 (3) %
same,"% of control metabolism, raloxifene G1",[2]; [18],56 (1) %
same,"% of control metabolism, raloxifene G2",[2]; [18],63 (1) %
same,"% of control metabolism, raloxifene G1",[2]; [19],46 (2) %
same,"% of control metabolism, raloxifene G2",[2]; [19],50 (3) %
same,"% of control metabolism, raloxifene G1",[2]; [20],22 (1) %
same,"% of control metabolism, raloxifene G2",[2]; [20],27 (2) %
same,"Inhibition of raloxifene glucuronidation, G1, UGT1A3",UGT1A3; inhibitor 25 μM,69 (2)
same,"Inhibition of raloxifene glucuronidation, G1, UGT1A3",UGT1A3; inhibitor 50 μM,26 (2)
same,"Inhibition of raloxifene glucuronidation, G2, UGT1A3",UGT1A3; inhibitor 25 μM,64 (3)
same,"Inhibition of raloxifene glucuronidation, G2, UGT1A3",UGT1A3; inhibitor 50 μM,25 (1)
same,"% of control metabolism, raloxifene G1",UGT1A3; inhibitor 25 μM,69 (2) %
same,"% of control metabolism, raloxifene G2",UGT1A3; inhibitor 25 μM,64 (3) %
same,"% of control metabolism, raloxifene G1",UGT1A3; inhibitor 50 μM,26 (2) %
same,"% of control metabolism, raloxifene G2",UGT1A3; inhibitor 50 μM,25 (1) %
same,"residual metabolism (% of control), E2-3-β-D-glucuronide",[3],32 (0) %
same,"residual metabolism (% of control), E2-17-β-D-glucuronide",[3],41 (4) %
same,"percentage of control metabolism, 7-HFC glucuronidation",[4]; inhibitor 100 μM,67 (1) %
same,"% of control metabolism (SD, n = 3), 7-HFC glucuronidation",[4]; inhibitor 100 μM,67 (1) %
same,"percentage of control metabolism, 7-HFC glucuronidation",[4]; inhibitor 200 μM,37 (2) %
same,"% of control metabolism (SD, n = 3), 7-HFC glucuronidation",[4]; inhibitor 200 μM,37 (2) %
same,"percentage of control metabolism, 7-HFC glucuronidation",[4]; inhibitor 500 μM,5 (1) %
same,"% of control metabolism (SD, n = 3), 7-HFC glucuronidation",[4]; inhibitor 500 μM,5 (1) %
same,"residual metabolism (% of control), E2-17-β-D-glucuronide",[5],82 (2) %
same,"residual metabolism (% of control), E2-3-β-D-glucuronide",[6],45 (2) %
same,"residual metabolism (% of control), E2-17-β-D-glucuronide",[6],70 (1) %
same,"residual metabolism (% of control), E2-3-β-D-glucuronide",[7],46 (1) %
same,"% of control metabolism, raloxifene G1",[8],38 (2) %
same,"% of control metabolism, raloxifene G2",[8],35 (4) %
same,"% of control metabolism, raloxifene G1",UGT1A9; inhibitor 25 μM,58 (1) %
same,"% of control metabolism, raloxifene G2",UGT1A9; inhibitor 25 μM,50 (1) %
same,"% of control metabolism, raloxifene G1",UGT1A9; inhibitor 50 μM,33 (4) %
same,"% of control metabolism, raloxifene G2",UGT1A9; inhibitor 50 μM,22 (2) %
same,"Inhibition of raloxifene glucuronidation, UGT1A9, first line per inhibitor (G1)",UGT1A9; inhibitor 25 μM,58 (1)
same,"Inhibition of raloxifene glucuronidation, UGT1A9, first line per inhibitor (G1)",UGT1A9; inhibitor 50 μM,33 (4)
same,"Inhibition of raloxifene glucuronidation, UGT1A9, second line per inhibitor (G2)",UGT1A9; inhibitor 25 μM,50 (1)
same,"Inhibition of raloxifene glucuronidation, UGT1A9, second line per inhibitor (G2)",UGT1A9; inhibitor 50 μM,22 (2)

# From patent US20030215462A1, “Use of UGT inhibitors to increase bioavailability” (priority 2001, published 2003)
